# Reference: patent publication US11884647B2, “Compounds and methods for targeting pathogenic blood vessels” (THE REGENTS OF THE UNIVERSITY OF CALIFORNIA, priority 2019, dated 2024)
# Entries after “also recorded” stand apart in the source; their conditions may differ.
# What was measured:
# [1] = biological target: T1, extracellular domain of PLXDC1 (PLXDC1-ECD) (Homo sapiens, UniProt Q8IUK5); experiment: Binding to PLXDC1 extracellular domain by suppression of tryptophan fluorescence
# T1 construct: the extracellular domain of PLXDC1 (PLXDC1-ECD)
# T1 sequence (Q8IUK5 19-426 limits assumed): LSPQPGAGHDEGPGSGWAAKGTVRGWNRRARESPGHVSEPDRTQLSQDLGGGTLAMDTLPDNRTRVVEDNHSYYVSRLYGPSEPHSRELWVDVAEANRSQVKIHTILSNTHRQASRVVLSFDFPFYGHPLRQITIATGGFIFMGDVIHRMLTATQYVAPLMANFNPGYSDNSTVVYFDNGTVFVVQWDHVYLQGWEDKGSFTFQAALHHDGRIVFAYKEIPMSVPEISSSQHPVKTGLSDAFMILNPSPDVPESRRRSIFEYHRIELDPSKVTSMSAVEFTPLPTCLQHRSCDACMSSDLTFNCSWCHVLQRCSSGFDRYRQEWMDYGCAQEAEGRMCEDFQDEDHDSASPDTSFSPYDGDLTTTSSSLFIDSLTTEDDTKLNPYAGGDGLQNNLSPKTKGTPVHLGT
# Method: The high affinity interaction between compound 346 (Table 3) and the extracellular domain of PLXDC1 (PLXDC1-ECD). […] Tryptophan fluorescence without the compound added is defined as 1. The estimated Kd value is 50 nM.
# [2] = tested on: pathogenic blood vessels of the retina; experiment: Ischemia-induced retinopathy in vivo; parameters: species or system mouse; conditions: subcutaneous injection during return to room air; n=10 retinas
# Excerpt: A. Upper graph: Schematic diagram of the experimental design for ischemia-induced retinopathy. The high oxygen environment caused blood vessel loss (vaso-obliteration). In room air, loss of vessels triggered abnormal angiogenesis that generated pathogenic blood vessels on the top of the retina (marked in yellow in D). Treatment was applied during the return to room air by subcutaneous injection. […] Red signal is blood vessel marker. C. The same retinas in B with vaso-obliteration areas marked in white color. […] D. The same retinas in B with pathogenic blood vessels marked in yellow color. […] FIG. 7A includes a schematic diagram of the experimental design for ischemia-induced retinopathy. The high oxygen environment caused blood vessel loss (vaso-obliteration). In room air, loss of vessels triggered abnormal angiogenesis that generated pathogenic blood vessels on the top of the retina (marked in yellow in FIG. 7D). Treatment was applied during the return to room air by subcutaneous injection. […] The same retinas in B with vaso-obliteration areas marked in white color (FIG. 7C). […] The same retinas in B with pathogenic blood vessels marked in yellow color (FIG. 7D).
# [3] = tested on: tumor endothelial cells (LL/2 lung cancer tumor); experiment: Lung LL2 ex vivo model of tumor angiogenesis; assay type: cell-based, mouse; conditions: Mus musculus, Endothelial cell, 48 h, read-out: Cell death
# Method in brief: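 Mouse LL2 tumor fragments (~0.5×0.5×0.3 mm) embedded in Matrigel and grown in endothelial growth medium at 37° C until endothelial outgrowth (about 4 days) before drug treatment. About 48 h after drug addition, stained 10 min with fluorescein diacetate/propidium iodide; live (green) and dead (red) cells imaged at 2× with fixed channel settings.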
# PLXDC2 = PLXDC2 receptor activation (Gfi1b promotor luciferase reporter); assay type: cell-based; conditions: treatment 1 day
# Excerpt: (§1) FIG. 5A-B show activation of PLXDC1 and PLXDC2 by small molecules. […] All compound treatments were done for 1 day. Basal promotor activity of the PLXDC1-expressing cells is defined as 1.
# [4] = tested on: tumor / tumor blood vessels; experiment: Tumor animal model, bolus IV injection at day 0, tumor growth and morphology; assay type: in vivo, mouse; conditions: versus control group
# Excerpt: Treatment was done at day 0 by bolus IV injection. […] Treatment was done at day 0. […] Treatment was done at day 0.
# PLXDC1 = PLXDC1 receptor activation assay (Gfi1b promotor luciferase reporter); assay type: cell-based; conditions: treatment 1 day; basal activity of PLXDC1-expressing cells = 1
# Excerpt: as §1
compound,measurement,setting,value
"CCCCCCCCCCCCCCOc1ccc(S(=O)(=O)c2cnc3ccc([S+](C)[O-])cc3c2N2CCC(N3CCC(N4CCN(C)CC4)CC3)CC2)cc1 (centres unmarked) [compound 346, 4-(4-(4-methylpiperazin-1-yl)-[1,4′-bipiperidin]-1′-yl)-6-(methylsulfinyl)-3-((4-(tetradecyloxy)phenyl)sulfonyl)quinoline]",suppression of endogenous tryptophan fluorescence of PLXDC1-ECD,"[1]; different concentrations, fluorescence without compound = 1",suppressed the endogenous tryptophan fluorescence of PLXDC1-ECD in a dose-dependent manner
same,Kd,[1]; estimated from dose-dependent suppression of PLXDC1-ECD tryptophan fluorescence,50 nM
same,healthy blood vessels in ischemia-induced retinopathy,[2],improving the amount of healthy blood vessels
same,pathogenic blood vessels in ischemia-induced retinopathy,[2],specifically suppressed pathogenic blood vessels in vivo without affecting healthy blood vessels; also recorded: highly suppressed pathogenic blood vessels
same,cytotoxicity at 20 µM,[3],20%
same,Gfi1b promotor activity in PLXDC2-expressing cells,PLXDC2,activated the promotor activity in PLXDC2-expressing cells
same,tumor growth (shrinkage),[4],shrank the tumors significantly
same,Gfi1b promotor activity in PLXDC1-expressing cells,PLXDC1,highly activated the promotor activity in PLXDC1-expressing cells
